Experimental data as given in the NIST ThermoML archive (doi:10.1016/j.jct.2008.12.018).
± gives the expanded uncertainty stated by the source.

Test: activity coefficient (dimensionless); of the first substance listed, at infinite dilution; xn = mol fraction of the nth substance listed
Conditions: Liquid, Chromatography, x1 = 0

| SMILES | activity coefficient (298.15 K) | activity coefficient (308.15 K) | activity coefficient (318.15 K) | activity coefficient (328.15 K) | activity coefficient (338.15 K) | activity coefficient (348.15 K) | activity coefficient (358.15 K) | activity coefficient (368.15 K) | activity coefficient (298.15 K, 101 kPa) | activity coefficient (308.15 K, 101 kPa) | activity coefficient (318.15 K, 101 kPa) | activity coefficient (328.15 K, 101 kPa) | activity coefficient (338.15 K, 101 kPa) | activity coefficient (348.15 K, 101 kPa) | activity coefficient (358.15 K, 101 kPa) | activity coefficient (368.15 K, 101 kPa) |
| --- | --- | --- | --- | --- | --- | --- | --- | --- | --- | --- | --- | --- | --- | --- | --- | --- |
| CCCCCCCCC [nonane] + CCCCn1cc[n+](C)c1.N#C[S-] | 459 ± 32 | 414 ± 28 | 376 ± 26 | 332 ± 23 | 298 ± 20 | 272 ± 19 | 252 ± 17 |  |  |  |  |  |  |  |  |  |
| O [water] + CCCCn1cc[n+](C)c1.N#C[S-] |  |  |  | 0.316 ± 0.035 | 0.316 ± 0.035 | 0.32 ± 0.035 | 0.323 ± 0.035 | 0.325 ± 0.035 |  |  |  |  |  |  |  |  |
| CCCCCCCCCC [decane] + CCCCn1cc[n+](C)c1.N#C[S-] | 628 ± 43 | 581 ± 40 | 533 ± 26 | 470 ± 23 | 426 ± 20 | 386 ± 19 | 351 ± 17 |  |  |  |  |  |  |  |  |  |
| C1CCOC1 [tetrahydrofuran] + CCCCn1cc[n+](C)c1.N#C[S-] |  |  |  |  |  |  |  |  | 2 ± 0.14 | 1.98 ± 0.13 | 1.99 ± 0.14 | 1.99 ± 0.14 | 1.99 ± 0.14 | 1.99 ± 0.14 | 1.99 ± 0.14 | 2.01 ± 0.14 |
| C=CCCCCC [1-heptene] + CCCCn1cc[n+](C)c1.N#C[S-] | 81.1 ± 5.6 | 73.7 ± 5.1 | 68.5 ± 4.7 | 62.3 ± 4.3 | 58 ± 4 | 54.8 ± 3.8 | 52.4 ± 3.6 |  |  |  |  |  |  |  |  |  |
| Cc1ccc(C)cc1 [1,4-dimethylbenzene] + CCCCn1cc[n+](C)c1.N#C[S-] | 5.51 ± 0.38 | 5.54 ± 0.38 | 5.59 ± 0.38 | 5.6 ± 0.38 | 5.63 ± 0.38 | 5.68 ± 0.39 | 5.72 ± 0.39 | 5.75 ± 0.39 |  |  |  |  |  |  |  |  |
| C=CCCCC [hex-1-ene] + CCCCn1cc[n+](C)c1.N#C[S-] | 61.6 ± 4.2 | 54.8 ± 3.8 | 50.2 ± 3.4 | 44.9 ± 3.1 | 41.4 ± 2.8 | 38.3 ± 2.6 | 36.4 ± 2.5 |  |  |  |  |  |  |  |  |  |
| Cc1cccc(C)c1 [1,3-dimethylbenzene] + CCCCn1cc[n+](C)c1.N#C[S-] | 5.92 ± 0.4 | 5.91 ± 0.4 | 5.98 ± 0.41 | 5.96 ± 0.41 | 5.96 ± 0.41 | 5.97 ± 0.41 | 5.99 ± 0.41 | 5.96 ± 0.41 |  |  |  |  |  |  |  |  |
| CCCCCCC [heptane] + CCCCn1cc[n+](C)c1.N#C[S-] | 281 ± 19 | 245 ± 17 | 213 ± 15 | 183 ± 13 | 162 ± 11 | 146 ± 10 | 132 ± 9 |  |  |  |  |  |  |  |  |  |
| C=CCCCCCC [oct-1-ene] + CCCCn1cc[n+](C)c1.N#C[S-] | 111 ± 8 | 102 ± 7 | 96.3 ± 6.6 | 88.1 ± 6 | 82.5 ± 5.7 | 77.6 ± 5.3 | 73.8 ± 5.1 |  |  |  |  |  |  |  |  |  |
| c1ccsc1 [thiophene] + CCCCn1cc[n+](C)c1.N#C[S-] | 1.21 ± 0.078 | 1.24 ± 0.08 | 1.26 ± 0.081 | 1.27 ± 0.082 | 1.29 ± 0.084 | 1.32 ± 0.085 | 1.33 ± 0.086 | 1.36 ± 0.089 |  |  |  |  |  |  |  |  |
| CO [methanol] + CCCCn1cc[n+](C)c1.N#C[S-] | 0.416 ± 0.035 | 0.396 ± 0.034 | 0.396 ± 0.034 | 0.391 ± 0.034 | 0.387 ± 0.034 | 0.386 ± 0.033 | 0.383 ± 0.033 | 0.382 ± 0.033 |  |  |  |  |  |  |  |  |
| c1ccccc1 [benzene] + CCCCn1cc[n+](C)c1.N#C[S-] | 2.13 ± 0.14 | 2.15 ± 0.15 | 2.17 ± 0.15 | 2.18 ± 0.15 | 2.2 ± 0.15 | 2.22 ± 0.15 | 2.25 ± 0.15 | 2.27 ± 0.15 |  |  |  |  |  |  |  |  |
| CCCCO [butan-1-ol] + CCCCn1cc[n+](C)c1.N#C[S-] |  | 1.32 ± 0.09 | 1.25 ± 0.08 | 1.21 ± 0.08 | 1.16 ± 0.07 | 1.13 ± 0.07 | 1.1 ± 0.07 | 1.08 ± 0.07 |  |  |  |  |  |  |  |  |
| CCc1ccccc1 [ethylbenzene] + CCCCn1cc[n+](C)c1.N#C[S-] | 5.86 ± 0.4 | 5.9 ± 0.4 | 5.93 ± 0.4 | 5.86 ± 0.4 | 5.93 ± 0.4 | 5.83 ± 0.4 | 5.82 ± 0.4 | 5.81 ± 0.4 |  |  |  |  |  |  |  |  |
| C#CCCCC [1-hexyne] + CCCCn1cc[n+](C)c1.N#C[S-] | 6.42 ± 0.44 | 6.45 ± 0.44 | 6.59 ± 0.45 | 6.65 ± 0.45 | 6.76 ± 0.46 | 6.87 ± 0.47 | 6.95 ± 0.47 |  |  |  |  |  |  |  |  |  |

| SMILES | activity coefficient (298.15 K) | activity coefficient (308.15 K) | activity coefficient (318.15 K) | activity coefficient (328.15 K) | activity coefficient (338.15 K) | activity coefficient (348.15 K) | activity coefficient (358.15 K) | activity coefficient (368.15 K) | activity coefficient (298.15 K, 101 kPa) | activity coefficient (308.15 K, 101 kPa) | activity coefficient (318.15 K, 101 kPa) | activity coefficient (328.15 K, 101 kPa) | activity coefficient (338.15 K, 101 kPa) | activity coefficient (348.15 K, 101 kPa) | activity coefficient (358.15 K, 101 kPa) | activity coefficient (368.15 K, 101 kPa) |
| --- | --- | --- | --- | --- | --- | --- | --- | --- | --- | --- | --- | --- | --- | --- | --- | --- |
| C1CCCCCC1 [cycloheptane] + CCCCn1cc[n+](C)c1.N#C[S-] | 56.6 ± 3.9 | 51 ± 3.5 | 46.5 ± 3.2 | 42 ± 2.9 | 38.9 ± 2.7 | 36.1 ± 2.5 | 33.7 ± 2.3 |  |  |  |  |  |  |  |  |  |
| CCCCCCCC [octane] + CCCCn1cc[n+](C)c1.N#C[S-] | 350 ± 24 | 311 ± 21 | 279 ± 19 | 243 ± 17 | 218 ± 15 | 198 ± 14 | 180 ± 12 |  |  |  |  |  |  |  |  |  |
| CCO [ethanol] + CCCCn1cc[n+](C)c1.N#C[S-] | 0.743 ± 0.049 | 0.709 ± 0.047 | 0.69 ± 0.046 | 0.671 ± 0.045 | 0.655 ± 0.045 | 0.643 ± 0.044 | 0.631 ± 0.044 | 0.623 ± 0.043 |  |  |  |  |  |  |  |  |
| C#CCCCCC [1-heptyne] + CCCCn1cc[n+](C)c1.N#C[S-] | 9.88 ± 0.67 | 9.92 ± 0.68 | 10.1 ± 0.69 | 10.2 ± 0.7 | 10.2 ± 0.7 | 10.3 ± 0.7 | 10.4 ± 0.71 |  |  |  |  |  |  |  |  |  |
| CCCCCC [hexane] + CCCCn1cc[n+](C)c1.N#C[S-] | 226 ± 16 | 189 ± 13 | 167 ± 11 | 143 ± 10 | 126 ± 9 | 108 ± 7 | 100 ± 7 |  |  |  |  |  |  |  |  |  |
| CCCO [propan-1-ol] + CCCCn1cc[n+](C)c1.N#C[S-] |  | 0.93 ± 0.06 | 0.9 ± 0.06 | 0.87 ± 0.06 | 0.84 ± 0.05 | 0.83 ± 0.05 | 0.81 ± 0.05 | 0.8 ± 0.05 |  |  |  |  |  |  |  |  |
| Cc1ccccc1 [toluene] + CCCCn1cc[n+](C)c1.N#C[S-] | 3.4 ± 0.23 | 3.48 ± 0.24 | 3.52 ± 0.24 | 3.53 ± 0.24 | 3.55 ± 0.24 | 3.59 ± 0.24 | 3.62 ± 0.25 | 3.65 ± 0.25 |  |  |  |  |  |  |  |  |
| Cc1ccccc1C [1,2-dimethylbenzene] + CCCCn1cc[n+](C)c1.N#C[S-] | 4.58 ± 0.31 | 4.64 ± 0.32 | 4.71 ± 0.32 | 4.69 ± 0.32 | 4.71 ± 0.32 | 4.75 ± 0.32 | 4.78 ± 0.33 | 4.81 ± 0.33 |  |  |  |  |  |  |  |  |
| C1CCCC1 [cyclopentane] + CCCCn1cc[n+](C)c1.N#C[S-] | 46.9 ± 3.2 | 39.7 ± 2.7 | 34.9 ± 2.4 | 30 ± 2.1 | 26.8 ± 1.8 | 24.2 ± 1.7 | 23.1 ± 1.6 |  |  |  |  |  |  |  |  |  |
| C#CCCCCCC [1-octyne] + CCCCn1cc[n+](C)c1.N#C[S-] | 15.2 ± 1 | 15.1 ± 1 | 15.4 ± 1.1 | 15.3 ± 1 | 15.3 ± 1 | 15.3 ± 1 | 15.3 ± 1 |  |  |  |  |  |  |  |  |  |
| CCCCCO [pentan-1-ol] + CCCCn1cc[n+](C)c1.N#C[S-] |  |  | 1.62 ± 0.11 | 1.54 ± 0.1 | 1.5 ± 0.1 | 1.47 ± 0.1 | 1.45 ± 0.1 | 1.44 ± 0.09 |  |  |  |  |  |  |  |  |
| C1CCCCCCC1 [cyclooctane] + CCCCn1cc[n+](C)c1.N#C[S-] | 70 ± 4.8 | 63.1 ± 4.3 | 57.8 ± 4 | 53.2 ± 3.6 | 48.6 ± 3.3 | 45 ± 3.1 | 41.9 ± 2.9 |  |  |  |  |  |  |  |  |  |
| C=CCCC [1-pentene] + CCCCn1cc[n+](C)c1.N#C[S-] | 52.3 ± 3.6 | 46.4 ± 3.2 | 41.5 ± 2.8 | 35.4 ± 2.4 | 32.6 ± 2.2 | 30.6 ± 2.1 | 27.6 ± 1.9 |  |  |  |  |  |  |  |  |  |
| C1CCCCC1 [cyclohexane] + CCCCn1cc[n+](C)c1.N#C[S-] | 62.3 ± 4.3 | 53.5 ± 3.7 | 47.1 ± 3.2 | 41.1 ± 2.8 | 36.8 ± 2.5 | 33.5 ± 2.3 | 31.1 ± 2.1 |  |  |  |  |  |  |  |  |  |
| C#CCCC [1-pentyne] + CCCCn1cc[n+](C)c1.N#C[S-] | 4.6 ± 0.31 | 4.68 ± 0.32 | 4.71 ± 0.32 | 4.73 ± 0.32 | 4.79 ± 0.33 | 4.85 ± 0.33 | 4.97 ± 0.34 |  |  |  |  |  |  |  |  |  |
